The values that follow come from paper PMC9317966, “Structure-function analysis of the AMPK activator SC4 and identification of a potent pan AMPK activator” (Biochemical Journal, 2022).

Holding throughout (format): biochemical
For experiment [1], the target named is T1, GST-α1β1γ1 AMPK in solution (Homo sapiens, UniProt Q13131+Q9Y478).
T1 construct: triply transfected with full-length AMPK α1 or α2 (NH2-terminal GST fusion, pDEST27 vector); full-length AMPK α1 or α2 (NH2-terminal GST fusion, pDEST27 vector), β1 or β2 (COOH-terminal FLAG fusion, pcDNA3.1 vector); FLAG (C); made in house; host or cells: HEK293T/17 cells, transient triple transfection
T1 sequence (Q13131 whole entry, the tested form may be a part): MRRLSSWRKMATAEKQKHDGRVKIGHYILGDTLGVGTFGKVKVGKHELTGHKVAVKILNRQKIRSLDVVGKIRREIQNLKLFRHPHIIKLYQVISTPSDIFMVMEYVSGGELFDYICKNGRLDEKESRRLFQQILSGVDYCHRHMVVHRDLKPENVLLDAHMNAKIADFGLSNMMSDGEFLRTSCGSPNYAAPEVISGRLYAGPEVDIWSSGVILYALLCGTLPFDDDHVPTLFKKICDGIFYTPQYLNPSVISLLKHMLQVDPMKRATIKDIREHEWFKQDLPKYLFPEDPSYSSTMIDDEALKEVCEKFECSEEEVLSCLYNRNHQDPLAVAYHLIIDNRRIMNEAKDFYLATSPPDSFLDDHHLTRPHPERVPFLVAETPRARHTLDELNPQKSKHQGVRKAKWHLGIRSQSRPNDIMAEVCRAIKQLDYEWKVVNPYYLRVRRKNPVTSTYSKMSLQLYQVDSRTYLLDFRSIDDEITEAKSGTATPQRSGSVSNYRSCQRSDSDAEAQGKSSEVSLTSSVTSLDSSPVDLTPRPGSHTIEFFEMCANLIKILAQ
T1 sequence (Q9Y478 whole entry, the tested form may be a part): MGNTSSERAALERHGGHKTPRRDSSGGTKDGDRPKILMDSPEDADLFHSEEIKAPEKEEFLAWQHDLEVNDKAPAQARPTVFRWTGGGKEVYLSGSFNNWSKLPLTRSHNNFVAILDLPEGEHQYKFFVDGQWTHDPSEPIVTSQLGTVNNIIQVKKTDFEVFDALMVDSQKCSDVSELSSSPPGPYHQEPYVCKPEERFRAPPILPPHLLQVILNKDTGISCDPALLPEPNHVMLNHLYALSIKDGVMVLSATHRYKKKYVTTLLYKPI
T1 sequence (P54619 whole entry partner, the tested form may be a part): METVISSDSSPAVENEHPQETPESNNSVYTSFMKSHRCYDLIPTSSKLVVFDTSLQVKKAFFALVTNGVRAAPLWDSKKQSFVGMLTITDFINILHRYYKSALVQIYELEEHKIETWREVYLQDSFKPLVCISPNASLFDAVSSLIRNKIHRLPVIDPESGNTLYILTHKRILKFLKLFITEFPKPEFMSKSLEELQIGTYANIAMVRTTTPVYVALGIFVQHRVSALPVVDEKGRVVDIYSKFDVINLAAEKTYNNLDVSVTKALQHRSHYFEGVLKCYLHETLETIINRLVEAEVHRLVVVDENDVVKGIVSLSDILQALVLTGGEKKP
As to the kind of experiment: In solution SAMS kinase assay, HEK293T/17-expressed GST-α1β1γ1 eluted from glutathione Sepharose. The conditions noted are these: for EC50: 0-30 µM activator. Here is the method: (§1) Adherent HEK293T/17 cells at ∼50% confluency were triply transfected with full-length AMPK α1 or α2 (NH2-terminal GST fusion, pDEST27 vector), β1 or β2 (COOH-terminal FLAG fusion, pcDNA3.1 vector), and γ1, γ2 or γ3 (NH2-terminal HA fusion, pMT2 vector) in the presence of FuGENE HD transfection reagent (Promega) as per the manufacturers protocol. Cells were harvested 48 hours post-transfection by first gently washing in ice cold phosphate buffered saline (PBS; Sigma–Aldrich), then scraping in ice cold lysis buffer (50 mM TRIS pH 7.5, 150 mM NaCl, 10% (v/v) glycerol, 50 mM NaF, 5 mM sodium pyrophosphate, 1% (v/v) Triton X-100, cOmplete protease inhibitor cocktail). Lysates were clarified by centrifugation (16 000g, 3 min, 4°C), flash frozen in liquid N2 and stored at −80°C until analysis. For radioactive kinase assays, AMPK was immobilised on glutathione Sepharose 4B resin (GE Healthcare) by incubation with lysates for 1.5 h at 4°C. Following centrifugation (1000g, 3 min, 4°C), the resin was washed twice in purification buffer (50 mM HEPES pH 7.4, 150 mM NaCl, 10% (v/v) glycerol, 0.02% (v/v) Tween-20), once in 50 mM HEPES pH 7.4 with 0.02% (v/v) Tween-20, then resuspended to a 50% slurry with 50 mM HEPES pH 7.4 and 10 µl added to the activity assays. For in solution kinase assays, α1β1γ1 AMPK was eluted from glutathione-Sepharose by incubating with purification buffer supplemented with 40 mM reduced glutathione (Sigma–Aldrich).
(§2) AMPK activity was determined by phosphorylation of the SAMS peptide (Purar Chemicals, sequence: NH2-HMRSAMSGLHLVKRR-COOH) in a 25 µl reaction volume containing 100 µM SAMS peptide, 5 mM MgCl2, 200 µM ATP, [γ-^32P]-ATP (PerkinElmer) and assay buffer (50 mM HEPES pH 7.4, 1 mM DTT and 0.02% (v/v) Tween-20) and purified AMPK. Phosphotransferase activity was conducted at 30°C for 10 min and reactions were quenched by spotting 15 µl onto phosphocellulose ion-exchange chromatography paper (made in-house), followed by repeated washes in 1% H3PO4 (Merck Millipore). Ultima Gold liquid scintillation fluid (5 ml; PerkinElmer) was added to vials containing dried phosphocellulose papers, and the level of ^32P-transfer to the SAMS peptide was determined using a Tri-Carb 2900TR liquid scintillation counter (PerkinElmer).
⍺1β1γ1 – in solution E. coli-expressed ⍺2β1γ1 […]
log [compound] (M) log [compound] (M)
Compound EC (nM) Max. fold Compound EC50 (nM) Max. fold
Supplementary Figure 3. In solution activation kinetics for AMPK complexes. Related to Figure 2. Activities measured in the presence of 0-30 µM AMPK activators. […]

For a further experiment, the target named is T2, human GST-AMPK α1β1γ1 (Homo sapiens, UniProt Q13131+Q9Y478).
T2 construct: triply transfected with full-length AMPK α1 or α2 (NH2-terminal GST fusion, pDEST27 vector); full-length AMPK α1 or α2 (NH2-terminal GST fusion, pDEST27 vector), β1 or β2 (COOH-terminal FLAG fusion, pcDNA3.1 vector); FLAG (C); made in house; host or cells: HEK293T/17 cells, transient triple transfection
T2 sequence (Q13131 whole entry, the tested form may be a part): as the sequence (Q13131 whole entry, the tested form may be a part) above
T2 sequence (Q9Y478 whole entry, the tested form may be a part): as the sequence (Q9Y478 whole entry, the tested form may be a part) above
T2 sequence (P54619 whole entry partner, the tested form may be a part): as the sequence (P54619 whole entry partner, the tested form may be a part) above
As to the kind of experiment: Radiolabel SAMS kinase assay, GST-AMPK from HEK293T/17 cells immobilised on glutathione-Sepharose. The conditions noted are these: for Max. fold activation: immobilised α1β1γ1; for EC50: immobilised α1β1γ1, 0–30 µM activator.
From the text: We generated a series of compounds to investigate whether modification of the SC4 2-hydroxybiphenyl LHS fragment affects isoform selectivity, some of which (MSG008-MSG011) are presented in Table 1. We also synthesised compound MSG012 (example I-3-54 [32]), which was reported to activate α2β2γ1 with ∼100-fold greater potency compared with α1β1γ1. MSG012 differs from SC4 by substitution of the 2-hydroxyphenyl LHS fragment with 3-cyclohexen-4-yl-1-carboxylic acid, and 2-methylbenzoic acid RHS fragment with 1-hydroxy-N,N-dimethylcyclohexan-4-yl-1-carboxamide. Our initial screen involved measuring the activity of recombinant human GST-AMPK complexes expressed in HEK293T/17 cells and immobilised on glutathione-Sepharose (Supplementary Figure S1). Enzyme activity was measured by radiolabelling the synthetic SAMS peptide substrate in the absence or presence of 1 µM compound. Consistent with our previous characterisation, SC4 activated α1β1γ1, α2β1γ1 and α2β2γ1 >2.3-fold, and weakly activated α1β2γ1 1.3-fold (Figure 1A). […] The γ isoform had little influence on AMPK activation by MSG011 as most γ2 and γ3 complexes were activated >2.2-fold at 1 µM, with α1β2γ2 being the only exception (1.6-fold activation). […] Accordingly, MSG010, MSG011 and MSG012 can be classified as pan AMPK activators.
as §1, §2

The next experiment has as its target T3, human GST-AMPK α1β2γ1 (Homo sapiens, UniProt O43741+Q13131).
T3 construct: triply transfected with full-length AMPK α1 or α2 (NH2-terminal GST fusion, pDEST27 vector); full-length AMPK α1 or α2 (NH2-terminal GST fusion, pDEST27 vector), β1 or β2 (COOH-terminal FLAG fusion, pcDNA3.1 vector); FLAG (C); made in house; host or cells: HEK293T/17 cells, transient triple transfection
Described as above. The conditions noted are these: for Max. fold activation: immobilised α1β2γ1; for EC50: immobilised α1β2γ1, 0–30 µM activator.

The target in the next experiment is T4, human GST-AMPK α2β2γ1 (Homo sapiens, UniProt O43741+P54646).
T4 construct: triply transfected with full-length AMPK α1 or α2 (NH2-terminal GST fusion, pDEST27 vector); full-length AMPK α1 or α2 (NH2-terminal GST fusion, pDEST27 vector), β1 or β2 (COOH-terminal FLAG fusion, pcDNA3.1 vector); FLAG (C); made in house; host or cells: HEK293T/17 cells, transient triple transfection
T4 sequence (P54646 whole entry, the tested form may be a part): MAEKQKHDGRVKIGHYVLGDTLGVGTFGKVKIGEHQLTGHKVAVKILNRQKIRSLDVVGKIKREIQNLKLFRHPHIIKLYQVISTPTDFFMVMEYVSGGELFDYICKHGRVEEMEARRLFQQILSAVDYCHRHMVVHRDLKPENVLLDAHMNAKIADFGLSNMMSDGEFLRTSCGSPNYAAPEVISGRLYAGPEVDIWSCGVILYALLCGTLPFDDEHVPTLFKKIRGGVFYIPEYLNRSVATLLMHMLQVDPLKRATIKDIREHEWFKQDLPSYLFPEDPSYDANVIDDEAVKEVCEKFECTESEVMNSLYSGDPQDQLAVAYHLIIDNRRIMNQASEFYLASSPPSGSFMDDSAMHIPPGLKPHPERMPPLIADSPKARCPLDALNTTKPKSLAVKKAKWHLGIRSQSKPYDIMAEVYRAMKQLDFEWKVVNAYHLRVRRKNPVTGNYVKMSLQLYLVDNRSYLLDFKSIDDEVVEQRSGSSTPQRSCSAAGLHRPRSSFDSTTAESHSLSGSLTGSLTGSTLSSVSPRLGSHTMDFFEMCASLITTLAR
T4 sequence (O43741 whole entry, the tested form may be a part): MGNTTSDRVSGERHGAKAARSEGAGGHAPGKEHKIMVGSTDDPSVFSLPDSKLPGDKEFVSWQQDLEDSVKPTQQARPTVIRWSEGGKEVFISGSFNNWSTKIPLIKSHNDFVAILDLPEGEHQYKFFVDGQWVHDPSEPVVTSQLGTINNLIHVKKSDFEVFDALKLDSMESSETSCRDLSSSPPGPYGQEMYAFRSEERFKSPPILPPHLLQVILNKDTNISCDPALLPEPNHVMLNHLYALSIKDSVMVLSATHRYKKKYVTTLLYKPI
T4 sequence (P54619 whole entry partner, the tested form may be a part): as the sequence (P54619 whole entry partner, the tested form may be a part) above
The experiment is described as above. The conditions noted are these: for Max. fold activation: immobilised α2β2γ1; for EC50: immobilised α2β2γ1, 0–30 µM activator.

T3 sequence (Q13131 whole entry, the tested form may be a part): as the sequence (Q13131 whole entry, the tested form may be a part) above
T3 sequence (O43741 whole entry, the tested form may be a part): as the sequence (O43741 whole entry, the tested form may be a part) above
T3 sequence (P54619 whole entry partner, the tested form may be a part): as the sequence (P54619 whole entry partner, the tested form may be a part) above

By EC50 is commonly meant the concentration giving half of the maximal effect. A higher EC50 goes with a less potent agent. For `O[C@@H]1CO[C@H]2[C@@H]1OC[C@H]2Oc1nc2nc(-c3ccc(-c4ccccc4)cc3)c(Cl)cc2[nH]1` [MK-8722, reference compound], the Max. fold activation in experiment [1] worked out at 1.8 fold; on human GST-AMPK α1β1γ1 it was 2.2 fold; at human GST-AMPK α1β2γ1, 4.4 fold; at human GST-AMPK α2β2γ1, 5.8 fold. In addition, the concentration giving a half-maximal response (EC50) came out at 1740 nM in experiment [1], 1210 nM on human GST-AMPK α1β1γ1, 2180 nM on human GST-AMPK α1β2γ1 and 5600 nM on human GST-AMPK α2β2γ1.

For `CC(=O)NC1CC=C(c2ccc(-c3nc4nc(Oc5ccc(C)c(C(=O)O)c5)[nH]c4cc3Cl)cc2)CC1` (centres unmarked) [MSG011, 5-((5-(4′-Acetamido-2′,3′,4′,5′-tetrahydro-[1,1′-biphenyl]-4-yl)-6-chloro-1H-imidazo[4,5-b]pyridin-2-yl)oxy)-2-methylbenzoic acid], the Max. fold activation in experiment [1] was 2.6 fold; at human GST-AMPK α1β1γ1, 3.1 fold; on human GST-AMPK α1β2γ1, 2.3 fold; at human GST-AMPK α2β2γ1, 4.0 fold. For the same molecule, the EC50 in experiment [1] amounted to 25.2 nM; on human GST-AMPK α1β1γ1, 140 nM; on human GST-AMPK α1β2γ1, 249 nM; on human GST-AMPK α2β2γ1, 473 nM. For the same molecule, the “fold AMPK activation relative to vehicle” value on human GST-AMPK α1β1γ1 (1 µM compound) is listed as above 2.2 fold.
